Data as given in article PMC9304723 (Heliyon, 2022).

How the values were obtained:
OATP2B1 [1] = molecular target: T1, OATP2B1 (Homo sapiens, UniProt O94956); conditions: read-out: IC50, reduction of influx of substrates of OATP2B1; cited from earlier work
T1 sequence (O94956 1-709): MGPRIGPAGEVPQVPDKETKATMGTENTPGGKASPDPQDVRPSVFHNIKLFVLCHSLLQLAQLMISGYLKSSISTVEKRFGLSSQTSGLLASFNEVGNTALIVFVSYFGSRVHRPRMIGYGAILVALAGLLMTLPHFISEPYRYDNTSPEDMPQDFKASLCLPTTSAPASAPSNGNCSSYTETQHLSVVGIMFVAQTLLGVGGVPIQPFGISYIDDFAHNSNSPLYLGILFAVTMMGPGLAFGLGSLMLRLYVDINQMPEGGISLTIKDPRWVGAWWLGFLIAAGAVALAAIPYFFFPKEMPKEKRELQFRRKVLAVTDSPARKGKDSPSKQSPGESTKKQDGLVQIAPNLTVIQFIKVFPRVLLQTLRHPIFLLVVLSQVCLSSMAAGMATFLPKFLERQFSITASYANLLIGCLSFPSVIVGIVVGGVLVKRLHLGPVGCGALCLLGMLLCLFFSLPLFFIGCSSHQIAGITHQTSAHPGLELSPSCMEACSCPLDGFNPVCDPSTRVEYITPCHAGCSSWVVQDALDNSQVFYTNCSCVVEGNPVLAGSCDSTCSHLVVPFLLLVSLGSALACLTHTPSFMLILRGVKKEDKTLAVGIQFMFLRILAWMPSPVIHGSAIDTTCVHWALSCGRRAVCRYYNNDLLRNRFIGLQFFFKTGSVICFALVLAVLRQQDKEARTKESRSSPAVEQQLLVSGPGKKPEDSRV

P-glycoprotein (Pgp) = P-glycoprotein (Pgp) (Homo sapiens, UniProt P08183); experiment: Caco-2 transport of CA with Pgp inhibitor GF120918; assay type: in vitro ADME; conditions: 2 μM GF120918
Sequence of P-glycoprotein (Pgp) (P08183 whole entry): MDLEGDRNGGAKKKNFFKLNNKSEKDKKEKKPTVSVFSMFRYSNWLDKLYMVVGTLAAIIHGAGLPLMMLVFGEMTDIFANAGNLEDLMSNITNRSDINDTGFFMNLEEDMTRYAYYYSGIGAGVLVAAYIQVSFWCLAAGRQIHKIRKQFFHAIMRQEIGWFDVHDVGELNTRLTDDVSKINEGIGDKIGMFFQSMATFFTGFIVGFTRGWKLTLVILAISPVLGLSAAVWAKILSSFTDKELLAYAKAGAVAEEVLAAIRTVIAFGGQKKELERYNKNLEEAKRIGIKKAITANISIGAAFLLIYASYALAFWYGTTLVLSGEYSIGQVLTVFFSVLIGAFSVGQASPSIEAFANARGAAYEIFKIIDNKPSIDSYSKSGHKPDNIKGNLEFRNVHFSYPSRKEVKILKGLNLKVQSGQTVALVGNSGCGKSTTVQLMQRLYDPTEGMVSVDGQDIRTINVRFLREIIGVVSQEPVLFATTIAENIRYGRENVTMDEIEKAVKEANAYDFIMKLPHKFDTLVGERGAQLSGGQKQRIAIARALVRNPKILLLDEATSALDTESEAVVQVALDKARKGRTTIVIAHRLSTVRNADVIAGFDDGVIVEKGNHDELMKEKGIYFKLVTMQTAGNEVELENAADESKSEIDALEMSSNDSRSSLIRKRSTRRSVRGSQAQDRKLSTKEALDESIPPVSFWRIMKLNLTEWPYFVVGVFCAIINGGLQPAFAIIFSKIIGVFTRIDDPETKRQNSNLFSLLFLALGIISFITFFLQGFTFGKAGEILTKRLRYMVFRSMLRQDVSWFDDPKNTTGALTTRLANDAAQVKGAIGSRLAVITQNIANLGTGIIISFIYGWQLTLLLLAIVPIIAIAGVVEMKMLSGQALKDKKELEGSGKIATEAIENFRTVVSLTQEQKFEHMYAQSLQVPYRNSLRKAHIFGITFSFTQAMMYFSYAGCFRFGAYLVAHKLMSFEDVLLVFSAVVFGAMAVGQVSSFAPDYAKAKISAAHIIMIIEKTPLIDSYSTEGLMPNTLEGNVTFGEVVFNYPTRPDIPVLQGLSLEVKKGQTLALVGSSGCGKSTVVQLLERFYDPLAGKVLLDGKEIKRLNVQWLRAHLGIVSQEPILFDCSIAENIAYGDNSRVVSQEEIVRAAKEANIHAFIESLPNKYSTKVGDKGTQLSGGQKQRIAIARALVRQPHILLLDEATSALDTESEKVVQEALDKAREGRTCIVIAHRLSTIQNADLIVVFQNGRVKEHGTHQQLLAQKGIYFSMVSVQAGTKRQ

OATP2B1 [2] = molecular target: T1, OATP2B1; experiment: Caco-2 transport of CA with OATP2B1 inhibitor baicalin; assay type: in vitro ADME; conditions: 6 μM baicalin

Molecule | IC50 (OATP2B1 [1]) | Decrease of Papp B–A after GF120918 treatment (P-glycoprotein (Pgp)) | Decrease of Papp B–A after baicalin treatment (OATP2B1 [2])
O=C(O)[C@H]1O[C@@H](Oc2cc3oc(-c4ccccc4)cc(=O)c3c(O)c2O)[C@H](O)[C@@H](O)[C@@H]1O [baicalin] | 5.6 ± 3.2 µM |  | 
Chicoric acid [CA] |  | 62% | 63%
